# Values of other authors, collected in US20240065975A1, “OTF COMPOUND CONNECTED BY SEWING” (LTS LOHMANN THERAPIE-SYSTEME AG, priority 2021, published 2024).
# Settings: compared with (R)-ketamine
smiles,measurement,value
"CNC1(c2ccccc2Cl)CCCCC1=O (racemic) [(S)-ketamine, (S)-(±)-2-(2-chlorophenyl)-2-(methylamino)cyclohexan-1-one]",analgesic and anaesthetic potency relative to the (R) form,approximately three times higher
